# Structures can show the parent of a compound that is named as a salt.
# Tests used:
# [1] = Analgesic effect by acetic acid writhing method; type: in vivo, mice of ddY strain; conditions: Mus musculus, 20 min; oral, mice; 0.7% acetic acid i.p. 20 min after dosing; read-out: Analgesic action (ED50), Writhing method
# Method: Test 1: ANALGESIC EFFECT BY ACETIC ACID WRITHING METHOD (Koster et al., Fed Proc., 18, 412 (1959))
# Ten mice of ddY strain weighing 18-24 g were used in testing each compound. Twenty minutes after oral administration of test compounds, 0.1 ml/10 g of 0.7% acetic acid solution was injected intraperitoneally and the number of writhing syndromes was recorded for 10 minutes from 10 minutes after acetic acid injection. ED50 values were calculated from inhibition percent for each test compound.
# [2] = Analgesic effect by tail pressure method; type: in vivo, mice of ddY strain; conditions: Mus musculus; oral, mice; pain threshold at 30, 60, 90 and 120 min; read-out: Analgesic action (ED50), Tail pressure method
# Method: Test 2: ANALGESIC EFFECT BY TAIL PRESSURE METHOD (Keijiro Takagi et al., Yakugaku Zasshi, 78, 553 ([…])) Ten mice of ddY strain weighing 18-24 g and showing pain threshold of 50-80 mmHg were used in testing each compound. The pain threshold was measured at 30, 60, 90 and 120 minutes after oral administration of the test compounds and positive analgesic response was recorded when the pain threshold was two or more times higher than pre-administration. ED50 values were calculated from the numbers of positive mice.
# [3] = Analgesic effect by D'Amour-Smith's method; type: in vivo, mice of ddY strain; conditions: Mus musculus; oral, mice; reaction time at 30, 60, 90 and 120 min; read-out: Analgesic action (ED50), D'Amour-Smith's method
# Method: Test 3: ANALGESIC EFFECT BY D'AMOUR-[…] METHOD (D'Amour et al., J. Pharmacol. Exp. Ther., 72, 74 (1941)) Ten mice of ddY strain weighing 18-24 g and showing reaction times of 2-5 seconds were used in testing each compound. The reaction time was measured at 30, 60, 90 and 120 minutes after oral administration of the test compounds and positive analgesic response was recorded when the reaction time was two or more times longer than pre-administration. ED50 values were calculated from the number of positive mice.
# [4] = Anti-inflammatory effect by carrageenin edema method; type: in vivo, male rats of Wistar strain; conditions: rats; for ED50: Rattus norvegicus, oral, carrageenin edema, foot volume at 3 hours, read-out: Anti-inflammatory action (ED50); for Ratio of antiedematous action (100 mg/kg test compound/100 mg/kg phenylbutazone): ratio of inhibition % at 100 mg/kg oral, values marked * in the anti-inflammatory column
# Method: Test 4: ANTI-INFLAMMATORY EFFECT BY CARRAGEENIN EDEMA METHOD (Winter et al., Proc. Soc. Exp. Biol. Med., 111, 544 (1962)) Six male rats of Wistar strain weighing 110-120 g were used in testing each compound. […] ED50 values were calculated from the inhibition percent of foot volume, and the ratios of anti-edematous action of test compounds were calculated by the formula; (the inhibition % of 100 mg/kg test compounds)/(the inhibition % of 100 mg/kg phenylbutazone).
# [5] = in vivo; design: species or system male rats of Wistar strain; conditions: rat, po
# Method: Test 5: ULCERATION IN STOMACH (Brodie et al., Gastroenterology, 56, 206 (1969))
# Ten male rats of Wistar strain weighing 190-200 g were used for each dose. Rats were deprived of food for 24 hours before experiments. Test compounds were administered orally and 18 hours later the rats were sacrificed, thereafter the area of each gastric lesion was measured and summed under dissecting microscope (×9). UD50 values were calculated from the gastric lesion area.
Compound,ED50 [1],ED50 [2],ED50 [3],ED50 [4],TD50 at 18 h [5],Ratio of antiedematous action (100 mg/kg test compound/100 mg/kg phenylbutazone) [4]
"CC(C)Cc1ccc(C(C)C(=O)O)cc1 (centres unmarked) [Ibuprofen, reference compound]",195 mg/kg,324 mg/kg,> 300 mg/kg,66.5 mg/kg,278 mg/kg,
"Cn1c2cc(Cl)ccc2c2oc(C(=O)NCCCN3CCCCC3)cc21 [Compound No. 6, 6-chloro-4-methyl-furo[3,2-b]indole-2-(N-piperidinopropyl)carboxamide]",29.5 mg/kg,50 mg/kg,59 mg/kg,,,1.29
"CCn1c2cc(F)ccc2c2oc(C(=O)NCCCN3CCCCC3)cc21 [Compound No. 13, 4-ethyl-6-fluoro-furo[3,2-b]indole-2-(N-piperidinopropyl)carboxamide]",87.5 mg/kg,90.8 mg/kg,79.9 mg/kg,,,0.84
"Cc1c(N(C)C)c(=O)n(-c2ccccc2)n1C [Aminopyrin, reference compound]",38 mg/kg,98 mg/kg,225 mg/kg,,,
"O=C(NCCCN1CCCCC1)c1cc2[nH]c3cc(Cl)ccc3c2o1 [Compound No. 5, 6-chloro-furo[3,2-b]indole-2-(N-piperidinopropyl)carboxamide]",64.2 mg/kg,80 mg/kg,100 mg/kg,,400 mg/kg,0.73
"O=C(Cn1c(=O)sc2ccc(Cl)cc21)N1CCN(CCO)CC1 [Tiaramide HCl, reference compound]",66 mg/kg,110 mg/kg,93 mg/kg,84.3 mg/kg,> 200 mg/kg,
"CC(C)n1c2cc(C(F)(F)F)ccc2c2oc(C(=O)NCCCN3CCCCC3)cc21 [Compound No. 12, 4-isopropyl-6-trifluoromethyl-furo[3,2-b]indole-2-(N-piperidinopropyl)carbonxamide]",68.3 mg/kg,93 mg/kg,300 mg/kg,,351 mg/kg,2.19
"Cn1c2cc(C(F)(F)F)ccc2c2oc(C(=O)NCCCN3CCCCC3)cc21 [Compound No. 10, 4-methyl-6-trifluoromethyl-furo[3,2-b]indole-2-(N-piperidinopropyl)carboxamide]",32.5 mg/kg,38 mg/kg,49 mg/kg,45.4 mg/kg,> 200 mg/kg,
"CC(C)n1c2cc(Cl)ccc2c2oc(C(=O)NCCCN3CCCCC3)cc21 [Compound No. 8, 6-chloro-4-isopropyl-furo[3,2-b]indole-2-(N-piperidinopropyl)carboxamide]",68.4 mg/kg,87 mg/kg,100 mg/kg,,,0.56
"CCCCC1C(=O)N(c2ccccc2)N(c2ccccc2)C1=O [Phenylbutazone, reference compound]",123 mg/kg,> 300 mg/kg,> 300 mg/kg,110 mg/kg,145 mg/kg,
"CCCn1c2cc(OC)ccc2c2oc(C(=O)NCCCN3CCCCC3)cc21 [Compound No. 14, 6-methoxy-4-n-propyl-furo[3,2-b]-indole-2-(N-piperidinopropyl)carboxamide]",81.2 mg/kg,84.6 mg/kg,> 100 mg/kg,,,0.92
"CCn1c2cc(Cl)ccc2c2oc(C(=O)NCCCN3CCCCC3)cc21 [Compound No. 7, 6-chloro-4-ethyl-furo[3,2-b]indole-2-(N-piperidinopropyl)carboxamide]",56.4 mg/kg,41.8 mg/kg,31 mg/kg,,,1.45
"Cn1c2ccccc2c2oc(C(=O)NCCCN3CCCCC3)cc21 [Compound No. 2, 4-methyl-furo[3,2-b]indole-2-(N-piperidinopropyl)carboxamide]",36 mg/kg,68 mg/kg,115 mg/kg,,,0.82
"CCCn1c2cc(C)ccc2c2oc(C(=O)NCCCN3CCCCC3)cc21 [Compound No. 15, 6-methyl-4-n-propyl-furo[3,2-b]indole-2-(N-piperidinopropyl)carboxamide]",91 mg/kg,79.2 mg/kg,87.6 mg/kg,,,0.78
"CCn1c2cc(C(F)(F)F)ccc2c2oc(C(=O)NCCCN3CCCCC3)cc21 [Compound No. 11, 4-ethyl-6-trifluoromethyl-furo[3,2-b]indole-2-(N-piperidinopropyl)carboxamide]",30 mg/kg,41 mg/kg,50 mg/kg,,,1.29

# From patent US4288596A, “Furoindoles” (priority 1978, dated 1981)
